Values after ≈ are worked out from the molar mass of the structure shown.
What was measured:
[1] = Compound solubility in water; settings: for solubility: Compound Solubility in Water
[2] = biological target: T1, glucocerebrosidase (Gcase) (Homo sapiens, UniProt P04062); assay: Glucocerebrosidase (Gcase) activation assay, 4-methylumbelliferyl-beta-D-glucopyranoside substrate, fluorescence readout; format: biochemical; settings: for activation at 0.1 µM / Percent Gcase Activation, 0.1 μM Test Compound: test compound at 0.1 μM; for activation at 0.1 µM: read-out: Percent Gcase Activation, 0.1 μM Test Compound; for activation at 1 µM / Percent Gcase Activation, 1 μM Test Compound: test compound at 1.0 μM; for activation at 1 µM: read-out: Percent Gcase Activation, 1 μM Test Compound
T1 construct: micellar solution containing 10 nM GCase and 100 nM saposin C
T1 sequence (P04062 40-536): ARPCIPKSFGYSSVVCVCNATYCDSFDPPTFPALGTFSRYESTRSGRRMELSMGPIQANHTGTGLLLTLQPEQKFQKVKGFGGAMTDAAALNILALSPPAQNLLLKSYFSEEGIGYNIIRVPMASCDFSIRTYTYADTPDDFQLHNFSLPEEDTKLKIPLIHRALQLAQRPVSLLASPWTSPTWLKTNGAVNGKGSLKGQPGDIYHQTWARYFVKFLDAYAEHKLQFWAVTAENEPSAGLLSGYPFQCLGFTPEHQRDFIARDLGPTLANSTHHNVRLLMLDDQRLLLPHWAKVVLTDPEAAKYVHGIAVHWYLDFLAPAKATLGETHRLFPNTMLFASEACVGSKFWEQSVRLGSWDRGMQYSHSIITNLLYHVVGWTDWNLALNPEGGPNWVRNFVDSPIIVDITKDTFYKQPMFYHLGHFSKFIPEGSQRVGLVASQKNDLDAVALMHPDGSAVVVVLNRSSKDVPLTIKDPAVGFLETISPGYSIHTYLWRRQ
Method: The ability of exemplary compounds to activate glucocerebrosidase (Gcase) was measured.
A 484 μL aliquot of a 1.0 mg/mL solution of phosphatidylserine (PS) (Sigma P7769) in chloroform was evaporated under a stream of nitrogen for 1 hour. The lipid film was dissolved over 4 minutes of vigorous vortexing in 40 mL of 176 mM K2HPO4/50 mM citric acid (pH 4.7) containing 7.5 μL of triton X-100, resulting in a mixed micellar preparation with a composition of 0.32 mM triton and 0.37 mol % PS. 4-Methylumbelliferyl-beta-D-glucopyranoside (ACROS-337025000) was dissolved in the micellar solution to a final concentration of 2 mM for use as the reaction substrate.
Test compounds were diluted to the desired concentrations with dimethylsulfoxide (DMSO) from 10 mM stocks, and 0.41 μL of the DMSO compound mixture was added to 100 μL of micellar solution containing 10 nM GCase and 100 nM saposin C (Enzo ALX-201-262-C050). Pre-incubation was allowed to occur for 30 minutes at room temperature, after which the reaction was initiated by combining 25 μL of substrate solution with 25 μL of compound/GCase/saposin mixture. The reaction proceeded for 15 minutes at room temperature and was stopped by adding 150 μL of 1M glycine, pH 12.5. The endpoint of the reaction was monitored by measuring fluorescence intensity (excitation: 365 nm; emission: 440 nm) on a SpectraMax i3 instrument (Molecular Devices). Test compounds were screened at 1.0 and 0.1 μM final concentration, and subsequent 8-point dose response curves were obtained using 3-fold dilutions from a maximum final concentration of 5 μM.

| solubility ([1]; water) | activation at 0.1 µM [2] | activation at 1 µM [2] | solubility ([1]; water, in water) | Compound Solubility in Water ([1]; water) | Percent Gcase Activation, 0.1 μM Test Compound [2] | Percent Gcase Activation, 1 μM Test Compound [2] | Compound Solubility in Water ([1]; in water) | SMILES |
| --- | --- | --- | --- | --- | --- | --- | --- | --- |
| 13.6 µg/mL (≈ 36.4 µM) | 10 to 20% | > 60% |  |  |  |  |  | CCCCO[C@H]1CC[C@H](NC(=O)c2ccn3c(C)cc(COC)nc23)CC1 [III-45] |
| 11.8 µg/mL (≈ 31.1 µM) | 10 to 20% | > 60% |  |  |  |  |  | COCCOc1ccc2c(c1)C(NC(=O)c1ccn3c(C)cc(C)nc13)CC2 (stereo not shown) [III-103] |
|  | < 10% | < 30% | 25.1 µg/mL (≈ 73.7 µM) |  |  |  |  | Cc1cc(C)n2ccc(C(=O)NC3CCN(CC(F)(F)F)C3)c2n1 (stereo not shown) [III-235] |
| < 0.1 µg/mL | > 20% | > 60% |  |  |  |  |  | CCCCCOc1ccc(NC(=O)c2ccn3c(C)cc(C)nc23)cc1 [III-6] |
| 1.4 µg/mL (≈ 4.55 µM) | > 20% | > 60% |  |  |  |  |  | CC[C@H](NC(=O)c1ccn2c(C)cc(C)nc12)c1ccccc1 [III-164] |
|  | < 10% | > 60% | 17.3 µg/mL (≈ 52.5 µM) |  |  |  |  | CCCO[C@H]1CC[C@H](NC(=O)c2ccn3c(C)cc(C)nc23)CC1 [III-290] |
|  | 10 to 20% | > 60% | 1.8 µg/mL (≈ 4.66 µM) |  |  |  |  | Cc1cc(C(F)(F)F)nc2c(C(=O)Nc3ccc(-c4cocn4)cc3)ccn12 [III-252] |
| 10.1 µg/mL (≈ 34.8 µM) | < 10% | > 60% |  |  |  |  |  | C#Cc1ccc(NC(=O)c2ccn3c(C)cc(C)nc23)cn1 [III-5] |
| 11.1 µg/mL (≈ 32.3 µM) | 10 to 20% | > 60% |  |  |  |  |  | CC[C@H](C)O[C@H]1CC[C@H](NC(=O)c2ccn3c(C)cc(C)nc23)CC1 [III-125] |
| 0.5 µg/mL (≈ 1.34 µM) |  | > 60% |  |  |  |  |  | Cc1cc(C)n2ccc(C(=O)NC3CCc4ccc(-c5cocn5)cc43)c2n1 (stereo not shown) [III-130] |
| 27.2 µg/mL (≈ 84.9 µM) | < 10% | < 30% |  |  |  |  |  | Cc1cc(C)n2ccc(C(=O)NC3CCCc4cccnc43)c2n1 (stereo not shown) [III-193] |
| 25.4 µg/mL (≈ 81 µM) | < 10% | < 30% |  |  |  |  |  | Cc1cc(C)n2ccc(C(=O)NC3CCC4(CCCO4)C3)c2n1 (stereo not shown) [III-146] |
| 3.3 µg/mL (≈ 8.79 µM) | > 20% | > 60% |  |  |  |  |  | Cc1cc(C)n2ccc(C(=O)NC3CCC4(CCCO4)c4ccccc43)c2n1 (stereo not shown) [III-143] |
| 0.4 µg/mL (≈ 1.14 µM) | > 20% | > 60% |  |  |  |  |  | COCc1cc(C)n2ccc(C(=O)N[C@H]3CCCc4ccccc43)c2n1 [III-42] |
| 1 µg/mL (≈ 2.64 µM) | > 20% | > 60% |  |  |  |  |  | CCCCO[C@H]1CC[C@H](NC(=O)c2ccn3c(C(F)F)cc(C)nc23)CC1 [III-68] |
|  |  |  |  | 20.4 µg/mL | * (less than 10% Gcase activation) | + (less than 30% Gcase activation) |  | Cc1cc(C)n2ccc(C(=O)NC3CCC4(CCCO4)C3)c2n1 (stereo not shown) [III-147] |
|  |  |  |  | 21.3 µg/mL | * (less than 10% Gcase activation) |  |  | Cc1cc(C)n2ccc(C(=O)NC3CCC4(CCCCO4)C3)c2n1 (stereo not shown) [III-85] |
|  | 10 to 20% | > 60% | 17.7 µg/mL (≈ 51.5 µM) |  |  |  |  | CCCCCO[C@H]1CC[C@H](NC(=O)c2ccn3c(C)ccnc23)CC1 [III-260] |
|  | < 10% | < 30% | 0.5 µg/mL (≈ 1.56 µM) |  |  |  |  | Cc1cc(C)n2ccc(C(=O)Nc3ccc4c(c3)C(O)CC4)c2n1 (stereo not shown) [III-222] |
|  | > 20% | > 60% | 1.6 µg/mL (≈ 4.98 µM) |  |  |  |  | CCC(C)(NC(=O)c1ccn2c(C)cc(C)nc12)c1ccccc1 (stereo not shown) [III-287] |
| 0.7 µg/mL (≈ 2.19 µM) | > 20% | > 60% |  |  |  |  |  | Cc1cc(C)n2ccc(C(=O)N[C@H]3CCCc4ccccc43)c2n1 [III-100] |
|  | > 20% | > 60% | 2.1 µg/mL (≈ 5.26 µM) |  |  |  |  | CCCCO[C@H]1CC[C@H](NC(=O)c2ccn3c(COC)cc(C4CC4)nc23)CC1 [III-268] |

| solubility ([1]; water) | activation at 0.1 µM [2] | activation at 1 µM [2] | solubility ([1]; water, in water) | Compound Solubility in Water ([1]; water) | Percent Gcase Activation, 0.1 μM Test Compound [2] | Percent Gcase Activation, 1 μM Test Compound [2] | Compound Solubility in Water ([1]; in water) | SMILES |
| --- | --- | --- | --- | --- | --- | --- | --- | --- |
| 2.7 µg/mL (≈ 7.47 µM) | > 20% | > 60% |  |  |  |  |  | C#Cc1ccc(C(C)(C)NC(=O)c2ccn3c(COC)cc(C)nc23)cc1 [III-62] |
| 11.7 µg/mL (≈ 28.6 µM) | > 20% | > 60% |  |  |  |  |  | CCCCO[C@H]1CC[C@H](NC(=O)c2ccn3c(C(F)F)cc(COC)nc23)CC1 [III-35] |
| 0.2 µg/mL (≈ 0.502 µM) | < 10% | 30 to 60% |  |  |  |  |  | Cc1cc(C)n2ccc(C(=O)Nc3ccc4c(c3)C(Oc3ccccn3)CC4)c2n1 (stereo not shown) [III-121] |
|  | < 10% | < 30% | 9.4 µg/mL (≈ 28.5 µM) |  |  |  |  | CCOC1(C)CCC(NC(=O)c2ccn3c(C)cc(C)nc23)CC1 (stereo not shown) [III-232] |
| 0.08 µg/mL (≈ 0.199 µM) | > 20% | > 60% |  |  |  |  |  | Cc1cc(C)n2ccc(C(=O)Nc3ccc4c(c3)C(Oc3cc(C)on3)CC4)c2n1 (stereo not shown) [III-96] |
| 3.1 µg/mL (≈ 8.39 µM) | > 20% | > 60% |  |  |  |  |  | CCCCO[C@H]1C2CCC1C[C@@H](NC(=O)c1ccn3c(C)cc(C)nc13)C2 [III-185] |
| 0.3 µg/mL (≈ 0.939 µM) | > 20% | > 60% |  |  |  |  |  | C#Cc1ccc(NC(=O)c2ccn3c(C)cc(C)nc23)c(OC)c1 [III-129] |
|  | > 20% | > 60% | 1.5 µg/mL (≈ 4.42 µM) |  |  |  |  | Cc1cc(C)n2ccc(C(=O)NC3CCOc4c(F)cccc43)c2n1 (stereo not shown) [III-224] |
|  | > 20% | > 60% | 3.6 µg/mL (≈ 10.1 µM) |  |  |  |  | CCCCCO[C@H]1CC[C@@H](NC(=O)c2ccn3c(C)cc(C)nc23)CC1 [III-202] |
| 5.8 µg/mL (≈ 14.7 µM) | 10 to 20% | > 60% |  |  |  |  |  | COCCOc1ccc2c(c1)C(NC(=O)c1ccn3c(C)cc(C)nc13)CCC2 (stereo not shown) [III-104] |
| 8.7 µg/mL (≈ 25.5 µM) | 10 to 20% |  |  |  |  | +++ (Gcase activation greater than 60%) |  | Cc1cc(C)n2ccc(C(=O)NC3CCCC4(CCCCO4)C3)c2n1 (stereo not shown) [III-80] |
| 15.3 µg/mL (≈ 47.6 µM) | 10 to 20% | 30 to 60% |  |  |  |  |  | Cc1cc(C)n2ccc(C(=O)NCC3CCC(F)(F)CC3)c2n1 [III-153] |
|  |  |  | < 0.1 µg/mL |  | *** (greater than 20% Gcase activation) | +++ (Gcase activation greater than 60%) |  | Cc1cc(C)n2ccc(C(=O)Nc3ccc(-c4ccco4)cc3)c2n1 [III-276] |
|  | < 10% | < 30% | 21.1 µg/mL (≈ 57.9 µM) |  |  |  |  | CCC(F)(F)CN1CCC(NC(=O)c2ccn3c(C)cc(C)nc23)CC1 [III-204] |
|  |  |  |  | 41.1 µg/mL | * (less than 10% Gcase activation) | + (less than 30% Gcase activation) |  | Cc1cc(C)n2ccc(C(=O)NC3CCC(C(=O)N(C)C4CC4)CC3)c2n1 (stereo not shown) [III-135] |
|  | 10 to 20% | > 60% |  |  |  |  | 28.2 µg/mL | Cc1cc(C(F)(F)F)nc2c(C(=O)NC3CCC4(CCCCO4)C3)ccn12 (stereo not shown) [III-248] |
| 17 µg/mL (≈ 51.9 µM) | < 10% | < 30% |  |  |  |  |  | Cc1cc(C)n2ccc(C(=O)NC3CCC4(CCCO4)CC3)c2n1 (stereo not shown) [III-141] |
|  |  |  |  | 10.4 µg/mL | * (less than 10% Gcase activation) | +++ (Gcase activation greater than 60%) |  | CCCCCO[C@@H]1CC[C@H](NC(=O)c2ccn3c(C)cc(C)nc23)C1 [III-180] |
| 4.2 µg/mL (≈ 11.4 µM) | 10 to 20% | > 60% |  |  |  |  |  | Cc1cc(C)n2ccc(C(=O)N[C@H]3CC[C@H](Oc4cccs4)CC3)c2n1 [III-190] |
|  | < 10% | < 30% | 0.7 µg/mL (≈ 2.19 µM) |  |  |  |  | C#Cc1ccc(NC(=O)c2ccn3c(C)cc(C)nc23)c(CO)c1 [III-213] |
|  | < 10% | < 30% | 2 µg/mL (≈ 6.28 µM) |  |  |  |  | Cc1ccn2ccc(C(=O)Nc3ccc(-c4ncco4)cc3)c2n1 [III-265] |
|  |  |  | < 0.1 µg/mL |  | *** (greater than 20% Gcase activation) | +++ (Gcase activation greater than 60%) |  | Cc1cc(C)n2ccc(C(=O)Nc3ccc(Cl)c(COc4cccnc4)c3)c2n1 [III-279] |
